Laboratory results as given in patent publication US20120035187A1 (priority 2009, published 2012).

Experiments:
[1] = tested on: hamsters with cerebellar ataxia; experiment: Rotarod test in hamsters with cerebellar ataxia; type: in vivo, hamster; conditions: for Time of falling from rotarod: hamster with cerebellar ataxia, agent of Example 1, 0.5 ml/hamster intraperitoneally once a day for 56 days; for improving effect on motor coordination (in words): cerebellar ataxia hamsters, agents of Example 1 compared among pentamethine cyanine dye compounds
From the text: (§1) Since NK-4 was confirmed to have a neurodegenerative inhibitory action in Experiment 1, hamsters with cerebellar ataxia (cerebellar ataxia is called “cerebellar A” and hamsters with cerebellar ataxia are called “hamsters with cerebellar A”, hereinafter) as a suitable model for human neurodegenerative diseases (e.g., spinal cerebellar degeneration) were subjected to examine the influence of NK-4 administration on their behaviors and brain tissues. Twenty-five hamsters with natural mutation (Nna1 inhibition), which are known to lose Purkinje's cells after three-weeks of age and then induce a spontaneous onset of kinetic motor ataxia after seven-weeks of age (see Akita K. et al., “J. Neurogenetics”, Vol. 21, pp. 19-29, 2007), had been fed at Hayashibara Biochemical Laboratories., Inc., Okayama, Japan, were randomly allocated to the test groups 1 to 5, five heads in each group, as shown in Table 2. Prior to the onset of cerebellar A (at three-weeks of age), PBS was started to administer to the hamsters in the test group 1 at a dose of 10 ml/kg/day. Prior to the onset of cerebellar A (at three-weeks of age), NK-4 was started to be administered to the hamsters in the test groups 2 to 4 at a daily dose of 20 μg/kg, 100 μg/kg or 500 μg/kg. “IGF-1, human, a product name of insulin-like growth factor, commercialized by Assaypro LLC, MO, USA. These administered ingredients were intraperitoneally administered daily to hamsters once a day up to 10-weeks of age. The degree of symptom of cerebellar A and the improvement effect on the symptom by NK-4 were evaluated with an index of improvement in motor coordination of hamsters by conducting once a week the later described rotarod test and the slant tolerance test. At the age of 10-weeks, the hamsters were subjected to counting the falling down frequency and extracted their brains, which were then histologically evaluated. In parallel, the concentration of glutamic acid in the bloods and cerebrospinal fluids (CSF) of the hamsters was assayed. As a test group 6, five normal hamsters, with the same age as the hamsters with cerebellar A used in the test groups 1 to 5, were provided and tested similarly as the hamsters with cerebellar A in such a manner of intraperitoneally administering PBS to them at a dose of 10 ml/kg/day once a day up to 10-weeks of age.
As an index for coordinated movement, it was used a duration time of hamster's movement to staying on a rotarod by locomotion in synchronization with the turn of the rotarod; placing a hamster on an apparatus with a rotarod (having a diameter of 60 mm, prepared by Hayashibara Biochemical Laboratories, Inc., Okayama, Japan), turning at a constant rate of six rpm, and measuring the time until the hamster falls down from the rotarod (see Fernandez et al., “Proc. Natl. Acad. Sci. USA”, Vol. 95, pp. 1253-1258, 1998). The test was repeated six times for each hamster, where five-times of tests starting from the initiation of the test were made as a preliminary examination, and the time until each hamster fell down from the rotarod (called “falling time”, hereinafter) was measured, followed by averaging the falling times for each group consisting of five heads. The falling time was measured until 180 seconds. Based on the results, the relationship between the age and the falling time for each hamster with cerebellar A (test group 1) administered with PBS was graphed. […]
Similarly as in Experiment 2, 130 hamsters with cerebellar ataxia, born within the same week and 3-weeks of age, were randomly divided into 13 groups, consisting of 10 hamsters, respectively. […]

[2] = tested on: hamsters with cerebellar ataxia; experiment: Falling down frequency of hamsters with cerebellar ataxia; type: in vivo, hamster; conditions: hamster with cerebellar ataxia; agent of Example 1, 0.5 ml/hamster intraperitoneally once a day for 56 days
From the text: as §1
Hamsters, 10-weeks of age, were respectively housed in a breeding cage. Their falling down frequencies within one minute were counted under a macroscopic observation and the data from five heads in each group were averaged. For reference, the hamsters with cerebellar A used in this experiment are known to increase their falling down frequencies after nine weeks of age.
Similarly as in Experiment 2, 130 hamsters with cerebellar ataxia, born within the same week and 3-weeks of age, were randomly divided into 13 groups, consisting of 10 hamsters, respectively. […] The hamsters (10 heads) in the remaining one group were intraperitoneally administered from their age of 3- to 10-weeks with a sterilized 10% maltose solution (pyrogen-free) in an amount of 0.5 ml/hamster (control) once a day for 56 days At the next day after the end of the administration, body weight of each hamster was weighed, followed by performing rotarod test, slope endurance test, and counting of falling down frequency. The types of compounds applied to each group and the results are in Table 25.

[3] = tested on: PC12-HS cells; experiment: Evaluation B: neurite-outgrowth action in presence of NGF; type: cell-based, rat; conditions: for Evaluation B: Neurite-outgrowth action: 50 μl of 400 ng/ml test sample solution per well + NGF final 5 ng/ml
[4] = tested on: ICR mice administered with amyloid β fragment; experiment: Degeneration or defect of hippocampal pyramidal cells, mouse administered with amyloid β fragment, agents of Example 1; type: in vivo; conditions: 4-point grade score none (0) to severe (3), average of 10 mice; agent of Example 1, 0.3 ml/head intraperitoneally once a day up to the 8th day
Description: One hundred and thirty ICR mice (commercialized by Charles Liver Laboratories Japan Inc., Kanagawa, Japan) were randomly divided into 13 groups, consisting of 10 mice in each group. Amyloid β fragment, represented by an amino acid sequence of SEQ ID NO: 1, used in Experiment 3 was aged at 37° C. for four days, and administered to the lateral ventricle of each mouse in an amount of 9 nmol/6 μl/mouse (the administration method is referred to “Brain Research”, Vol. 706, pp. 181-193 (1996)). […] The mice (10 heads) in the remaining one group were intraperitoneally administered with a sterilized 10% maltose solution (pyrogen-free) once a day up to the 8th day in an amount of 0.3 ml/mouse (control). On the 8th day after the administration, novel object recognition test (see, Japanese Patent Kokai No. 2008-193941) was performed and the average discrimination index (the ratio of prolonged seeking time for novel object to the total seeking time) as a cognitive function index were shown in Table 26. On the 9th day after the administration, the brain of the mice was anatomically isolated, prepared into tissue samples in conventional manner. Depositions of aggregation of amyloid fragment were observed by staining with Congo red or thioflavin T, and degeneration or defect of hippocampal pyramidal cells concerned with cognitive function. The degeneration or the defect of hippocampal pyramidal cells was evaluated by 4-point grade score, by regarding the condition of the control without administration of amyloid β fragment as “none (O)”, “slight (1)”, “moderate (2)”, and “sever (3)”, and the average scores of 10 mice are shown in Table 20.

[5] = final concentration of compound 200 ng/ml
[6] = final concentration of compound 400 ng/ml
[7] = final concentration of compound 800 ng/ml
[8] = final concentration of compound 1600 ng/ml
[9] = compound concentration 80 ng/ml
[10] = compound concentration 400 ng/ml
[11] = compound concentration 2000 ng/ml
[12] = compound concentration 10000 ng/ml

Row | Structure (SMILES) | Time of falling from rotarod [1] | Falling down frequency (count/min) [2] | Evaluation B: Neurite-outgrowth action ([3]; 3 days) | Rate of cells exhibiting neurite outgrowth (%) [3, 5] | Rate of cells exhibiting neurite outgrowth (%) [3, 6] | Rate of cells exhibiting neurite outgrowth (%) [3, 7] | Rate of cells exhibiting neurite outgrowth (%) [3, 8] | Degeneration/defluxion of hippocampal pyramidal cell [4] | improving effect on motor coordination (in words) [1] | Percentage (%) of cells with neurite outgrowth ([3]; 50 μl/well of 2 μg/ml test solution + NGF final 5 ng/ml, 3 days) | Action on neurite outgrowth (%) [3, 9] | Action on neurite outgrowth (%) [3, 10] | Action on neurite outgrowth (%) [3, 11] | Action on neurite outgrowth (%) [3, 12]
1 | CC[n+]1ccccc1/C=C/c1ccc(N(C)C)cc1 [NK-557] | 39.9 ± 5.1 s | 6.5 ± 1.1 count/min | ∘ (The test sample with a neurite outgrowth rate of 30% or higher was judged to be equivalent or more (∘) compared with NK-4) | 10> % | 20 ± 2% | 43 ± 5% | 84 ± 42% | 2.1 |  |  |  |  |  | 
2 | CN(C)c1ccc(/C=C/c2oc3ccccc3[n+]2C)cc1 [NK-528] | 37.5 ± 11.2 s | 5.2 ± 1.4 count/min | ∘ (The test sample with a neurite outgrowth rate of 30% or higher was judged to be equivalent or more (∘) compared with NK-4) |  |  |  |  | 2.2 |  |  |  |  |  | 
3 | CCN1/C(=C/C=C(/C=C/c2sc3ccccc3[n+]2CC)c2sc3ccccc3[n+]2CC)Sc2ccccc21.[I-].[I-] [NK-100] | 61.9 ± 9.4 s | 1.3 ± 0.7 count/min | ∘ (The test sample with a neurite outgrowth rate of 30% or higher was judged to be equivalent or more (∘) compared with NK-4) | 36 ± 2% | 40 ± 8% | 52 ± 7% | 89 ± 6% | 0.9 |  |  |  |  |  | 
4 | CCCCCCCCCN1C(C)=CS\C1=C/C=C(\C=C\c1scc(C)[n+]1CCCCCCCCC)c1scc(C)[n+]1CCCCCCCCC.[I-].[I-] [NK-393] | 86.5 ± 1.8 s | 0.9 ± 0.8 count/min |  |  |  |  |  | 1.1 | particularly high improving effect on motor coordination | 68% |  |  |  | 
5 | CCCCN1C=C/C(=C/C=C(/C=C/c2cc[n+](CCCC)c3ccccc23)c2cc[n+](CCCC)c3ccccc23)c2ccccc21 [NK-26] | 90.0 ± 7.1 s | 1.0 ± 0.7 count/min |  |  |  |  |  | 1.1 | particularly high improving effect on motor coordination |  | 72 ± 4% | 71 ± 7% | 25 ± 7% | 10< %
6 | CCCN1C=CC(=CC=C(C=Cc2cc[n+](CCC)c3ccccc23)c2cc[n+](CCC)c3ccccc23)c2ccccc21.[I-].[I-] [NK-234] |  |  |  |  |  |  |  |  |  |  | 24 ± 7% | 57 ± 7% | 61 ± 3% | 66 ± 20%
7 | CCCCCCCN1C=CC(=CC=C(C=Cc2cc[n+](CCCCCCC)c3ccccc23)c2cc[n+](CCCCCCC)c3ccccc23)c2ccccc21.[I-].[I-] [NK-28] | 69.0 ± 28 s | 1.3 ± 0.9 count/min |  |  |  |  |  | 1.4 |  |  | 38 ± 1% | 64 ± 10% | 70 ± 11% | 46 ± 20%
